Laboratory results from the NIST ThermoML archive (doi:10.1021/je500380x).
Numbers after ± are expanded uncertainties.

Experiment: mn = molality of the nth substance listed, in mol/kg
Conditions: 100 kPa, Liquid; for viscosity: Falling or rolling sphere viscometry; for mass density: Vibrating tube method; for electrical conductivity: Alternating current cell with electrodes

What does the source list for CCC(=O)OCCN1CCNCC1 [2-(piperazin-1-yl)ethyl propionate] + CO?
viscosity (308.15 K, m1 = 1.001): 0.949 ± 0.012 mPa·s; viscosity (308.15 K, m1 = 1.2): 1.098 ± 0.014 mPa·s; viscosity (308.15 K, m1 = 1.401): 1.305 ± 0.016 mPa·s; viscosity (308.15 K, m1 = 1.6): 1.56 ± 0.019 mPa·s; viscosity (308.15 K, m1 = 1.801): 1.895 ± 0.023 mPa·s; viscosity (308.15 K, m1 = 2): 2.346 ± 0.029 mPa·s; viscosity (308.15 K, m1 = 2.203): 2.912 ± 0.036 mPa·s; viscosity (308.15 K, m1 = 2.403): 3.753 ± 0.046 mPa·s; viscosity (308.15 K, m1 = 2.603): 4.841 ± 0.06 mPa·s; viscosity (308.15 K, m1 = 2.803): 6.372 ± 0.079 mPa·s; viscosity (308.15 K, m1 = 3.001): 8.863 ± 0.11 mPa·s; mass density (308.15 K, m1 = 0.05): 780.29 ± 0.16 kg/m3; mass density (308.15 K, m1 = 0.1001): 783.39 ± 0.15 kg/m3; mass density (308.15 K, m1 = 0.2006): 789.53 ± 0.15 kg/m3; mass density (308.15 K, m1 = 0.3003): 795.62 ± 0.15 kg/m3; mass density (308.15 K, m1 = 0.3995): 801.72 ± 0.15 kg/m3; mass density (308.15 K, m1 = 0.5005): 807.84 ± 0.15 kg/m3; mass density (308.15 K, m1 = 0.6006): 814.12 ± 0.15 kg/m3; mass density (308.15 K, m1 = 0.7007): 820.37 ± 0.15 kg/m3; mass density (308.15 K, m1 = 0.8007): 826.54 ± 0.14 kg/m3; mass density (308.15 K, m1 = 0.9008): 832.74 ± 0.14 kg/m3; mass density (308.15 K, m1 = 1.001): 838.83 ± 0.14 kg/m3; mass density (308.15 K, m1 = 1.2): 851.28 ± 0.14 kg/m3; mass density (308.15 K, m1 = 1.401): 864.42 ± 0.14 kg/m3; mass density (308.15 K, m1 = 1.6): 876.97 ± 0.13 kg/m3; mass density (308.15 K, m1 = 1.801): 890.31 ± 0.13 kg/m3; mass density (308.15 K, m1 = 2): 903.56 ± 0.13 kg/m3; mass density (308.15 K, m1 = 2.203): 917.48 ± 0.12 kg/m3; mass density (308.15 K, m1 = 2.403): 930.52 ± 0.12 kg/m3; mass density (308.15 K, m1 = 2.603): 943.48 ± 0.12 kg/m3; mass density (308.15 K, m1 = 2.803): 956.73 ± 0.12 kg/m3; mass density (308.15 K, m1 = 3.001): 970.42 ± 0.12 kg/m3; electrical conductivity (313.15 K, m1 = 0.05): 0.142 ± 0.0015 S/m; electrical conductivity (313.15 K, m1 = 0.1001): 0.238 ± 0.002 S/m; electrical conductivity (313.15 K, m1 = 0.2006): 0.384 ± 0.004 S/m; electrical conductivity (313.15 K, m1 = 0.3003): 0.498 ± 0.005 S/m; electrical conductivity (313.15 K, m1 = 0.3995): 0.586 ± 0.006 S/m; electrical conductivity (313.15 K, m1 = 0.5005): 0.661 ± 0.007 S/m; electrical conductivity (313.15 K, m1 = 0.6006): 0.729 ± 0.007 S/m; electrical conductivity (313.15 K, m1 = 0.7007): 0.779 ± 0.008 S/m; electrical conductivity (313.15 K, m1 = 0.8007): 0.823 ± 0.008 S/m; electrical conductivity (313.15 K, m1 = 0.9008): 0.857 ± 0.009 S/m; electrical conductivity (313.15 K, m1 = 1.001): 0.898 ± 0.009 S/m; electrical conductivity (313.15 K, m1 = 1.2): 0.931 ± 0.009 S/m; electrical conductivity (313.15 K, m1 = 1.401): 0.948 ± 0.009 S/m; electrical conductivity (313.15 K, m1 = 1.6): 0.941 ± 0.009 S/m; electrical conductivity (313.15 K, m1 = 1.801): 0.918 ± 0.009 S/m; electrical conductivity (313.15 K, m1 = 2): 0.873 ± 0.009 S/m; electrical conductivity (313.15 K, m1 = 2.203): 0.82 ± 0.008 S/m; electrical conductivity (313.15 K, m1 = 2.403): 0.751 ± 0.008 S/m; electrical conductivity (313.15 K, m1 = 2.603): 0.674 ± 0.007 S/m; electrical conductivity (313.15 K, m1 = 2.803): 0.599 ± 0.006 S/m; electrical conductivity (313.15 K, m1 = 3.006): 0.534 ± 0.005 S/m; viscosity (313.15 K, m1 = 0.05): 0.484 ± 0.006 mPa·s; viscosity (313.15 K, m1 = 0.1001): 0.494 ± 0.006 mPa·s; viscosity (313.15 K, m1 = 0.2006): 0.522 ± 0.007 mPa·s; viscosity (313.15 K, m1 = 0.3003): 0.552 ± 0.007 mPa·s; viscosity (313.15 K, m1 = 0.3995): 0.585 ± 0.007 mPa·s; viscosity (313.15 K, m1 = 0.5005): 0.623 ± 0.008 mPa·s; viscosity (313.15 K, m1 = 0.6006): 0.664 ± 0.008 mPa·s; viscosity (313.15 K, m1 = 0.7007): 0.706 ± 0.009 mPa·s; viscosity (313.15 K, m1 = 0.8007): 0.76 ± 0.009 mPa·s; viscosity (313.15 K, m1 = 0.9008): 0.815 ± 0.01 mPa·s; viscosity (313.15 K, m1 = 1.001): 0.878 ± 0.011 mPa·s; viscosity (313.15 K, m1 = 1.2): 1.012 ± 0.013 mPa·s; viscosity (313.15 K, m1 = 1.401): 1.197 ± 0.015 mPa·s; viscosity (313.15 K, m1 = 1.6): 1.425 ± 0.018 mPa·s; viscosity (313.15 K, m1 = 1.801): 1.723 ± 0.021 mPa·s; viscosity (313.15 K, m1 = 2): 2.12 ± 0.026 mPa·s; viscosity (313.15 K, m1 = 2.203): 2.614 ± 0.032 mPa·s; viscosity (313.15 K, m1 = 2.403): 3.343 ± 0.041 mPa·s; viscosity (313.15 K, m1 = 2.603): 4.274 ± 0.053 mPa·s; viscosity (313.15 K, m1 = 2.803): 5.571 ± 0.069 mPa·s; viscosity (313.15 K, m1 = 3.001): 7.662 ± 0.095 mPa·s; mass density (313.15 K, m1 = 0.05): 775.51 ± 0.16 kg/m3; mass density (313.15 K, m1 = 0.1001): 778.61 ± 0.16 kg/m3; mass density (313.15 K, m1 = 0.2006): 784.77 ± 0.15 kg/m3; mass density (313.15 K, m1 = 0.3003): 790.88 ± 0.15 kg/m3; mass density (313.15 K, m1 = 0.3995): 797 ± 0.15 kg/m3; mass density (313.15 K, m1 = 0.5005): 803.15 ± 0.15 kg/m3; mass density (313.15 K, m1 = 0.6006): 809.45 ± 0.15 kg/m3; mass density (313.15 K, m1 = 0.7007): 815.73 ± 0.15 kg/m3; mass density (313.15 K, m1 = 0.8007): 821.92 ± 0.15 kg/m3; mass density (313.15 K, m1 = 0.9008): 828.14 ± 0.14 kg/m3; mass density (313.15 K, m1 = 1.001): 834.22 ± 0.14 kg/m3; mass density (313.15 K, m1 = 1.2): 846.77 ± 0.14 kg/m3; mass density (313.15 K, m1 = 1.401): 859.97 ± 0.14 kg/m3; mass density (313.15 K, m1 = 1.6): 872.59 ± 0.13 kg/m3; mass density (313.15 K, m1 = 1.801): 885.98 ± 0.13 kg/m3; mass density (313.15 K, m1 = 2): 899.28 ± 0.13 kg/m3; mass density (313.15 K, m1 = 2.203): 913.27 ± 0.13 kg/m3; mass density (313.15 K, m1 = 2.403): 926.52 ± 0.12 kg/m3; mass density (313.15 K, m1 = 2.603): 939.34 ± 0.12 kg/m3; mass density (313.15 K, m1 = 2.803): 952.7 ± 0.12 kg/m3; mass density (313.15 K, m1 = 3.001): 966.46 ± 0.12 kg/m3; electrical conductivity (318.15 K, m1 = 0.05): 0.145 ± 0.0015 S/m; electrical conductivity (318.15 K, m1 = 0.1001): 0.243 ± 0.003 S/m; electrical conductivity (318.15 K, m1 = 0.2006): 0.395 ± 0.004 S/m; electrical conductivity (318.15 K, m1 = 0.3003): 0.511 ± 0.005 S/m; electrical conductivity (318.15 K, m1 = 0.3995): 0.604 ± 0.006 S/m; electrical conductivity (318.15 K, m1 = 0.5005): 0.685 ± 0.007 S/m; electrical conductivity (318.15 K, m1 = 0.6006): 0.754 ± 0.008 S/m; electrical conductivity (318.15 K, m1 = 0.7007): 0.806 ± 0.008 S/m; electrical conductivity (318.15 K, m1 = 0.8007): 0.855 ± 0.009 S/m; electrical conductivity (318.15 K, m1 = 0.9008): 0.891 ± 0.009 S/m; electrical conductivity (318.15 K, m1 = 1.001): 0.936 ± 0.009 S/m; electrical conductivity (318.15 K, m1 = 1.2): 0.975 ± 0.01 S/m; electrical conductivity (318.15 K, m1 = 1.401): 0.994 ± 0.01 S/m; electrical conductivity (318.15 K, m1 = 1.6): 0.995 ± 0.01 S/m; electrical conductivity (318.15 K, m1 = 1.801): 0.971 ± 0.01 S/m
